Test results taken from publication doi:10.1101/2023.02.24.529844v1, “Characterization of new highly selective pyrazolo[4,3-d]pyrimidine inhibitor of CDK7” (biorxiv, 2023).

Tests used:
CDK16 = target: T1, CDK16 (Homo sapiens, UniProt Q00536); experiment: Eurofins kinase selectivity panel; type: biochemical; conditions: read-out: residual activity at 1 μM
T1 construct: Eurofins Discovery kinase panel

CDK7 = target: T2, CDK7 (Homo sapiens, UniProt P50613); experiment: [gamma-33P]ATP radiometric kinase assay; type: biochemical
T2 construct: recombinant CDK7; with Cyclin-H
T2 sequence (P50613 2-346): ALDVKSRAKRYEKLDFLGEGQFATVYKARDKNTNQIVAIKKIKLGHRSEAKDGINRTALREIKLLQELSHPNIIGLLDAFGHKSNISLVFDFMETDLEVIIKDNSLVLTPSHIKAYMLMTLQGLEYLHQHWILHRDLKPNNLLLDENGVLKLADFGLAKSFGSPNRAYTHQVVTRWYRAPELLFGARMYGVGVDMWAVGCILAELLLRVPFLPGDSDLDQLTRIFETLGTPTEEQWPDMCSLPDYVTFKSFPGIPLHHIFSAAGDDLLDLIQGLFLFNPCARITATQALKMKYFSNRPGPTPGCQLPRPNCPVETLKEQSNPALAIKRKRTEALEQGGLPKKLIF
T2 sequence (P51946 whole entry partner): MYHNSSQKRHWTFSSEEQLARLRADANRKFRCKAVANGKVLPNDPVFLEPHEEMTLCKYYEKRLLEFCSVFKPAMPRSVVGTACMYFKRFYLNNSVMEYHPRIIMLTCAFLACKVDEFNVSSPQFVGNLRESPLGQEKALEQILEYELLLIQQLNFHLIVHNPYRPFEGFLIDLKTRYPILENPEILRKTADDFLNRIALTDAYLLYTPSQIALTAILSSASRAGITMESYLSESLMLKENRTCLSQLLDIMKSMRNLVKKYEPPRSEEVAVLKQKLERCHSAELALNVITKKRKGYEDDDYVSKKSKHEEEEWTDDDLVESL
T2 sequence (P51948 whole entry partner): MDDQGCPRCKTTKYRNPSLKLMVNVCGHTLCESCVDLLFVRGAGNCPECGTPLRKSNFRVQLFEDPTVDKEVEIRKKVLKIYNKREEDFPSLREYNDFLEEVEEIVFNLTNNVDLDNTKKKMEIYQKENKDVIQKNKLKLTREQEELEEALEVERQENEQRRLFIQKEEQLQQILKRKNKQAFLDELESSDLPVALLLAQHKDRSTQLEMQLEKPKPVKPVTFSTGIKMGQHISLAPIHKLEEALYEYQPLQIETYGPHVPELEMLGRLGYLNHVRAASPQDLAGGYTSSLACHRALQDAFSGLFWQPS

CDK5/p25 = CDK5/p25 (Homo sapiens, UniProt Q00535); experiment: biochemical; design: radiometric kinase inhibition assay with [gamma-33P]ATP, P-81 phosphocellulose spotting, digital image analysis
Chain of CDK5/p25 (Q00535 whole entry): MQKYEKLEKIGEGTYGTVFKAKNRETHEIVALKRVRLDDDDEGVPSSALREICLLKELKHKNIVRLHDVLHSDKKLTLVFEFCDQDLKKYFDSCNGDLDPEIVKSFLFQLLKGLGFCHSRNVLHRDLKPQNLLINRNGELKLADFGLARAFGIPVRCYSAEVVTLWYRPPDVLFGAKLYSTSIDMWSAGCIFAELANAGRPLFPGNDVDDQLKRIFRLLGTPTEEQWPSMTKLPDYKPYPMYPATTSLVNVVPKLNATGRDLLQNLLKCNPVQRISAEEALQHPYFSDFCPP
Chain of CDK5/p25 (Q15078 whole entry partner): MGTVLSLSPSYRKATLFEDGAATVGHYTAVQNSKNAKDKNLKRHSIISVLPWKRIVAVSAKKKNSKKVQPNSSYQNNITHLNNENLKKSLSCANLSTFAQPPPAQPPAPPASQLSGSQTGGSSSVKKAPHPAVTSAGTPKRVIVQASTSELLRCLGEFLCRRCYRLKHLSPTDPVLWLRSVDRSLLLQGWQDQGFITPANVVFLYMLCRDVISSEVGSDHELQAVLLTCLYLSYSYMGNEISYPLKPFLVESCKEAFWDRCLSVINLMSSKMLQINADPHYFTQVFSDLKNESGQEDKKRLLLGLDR
Protocol: (§1) The kinase inhibition assay was performed as previously described. Briefly, all tested kinases were incubated with specific substrates in the presence of ATP, 0.05 µCi [γ^33P]ATP and the LGR6768 compound in a final volume of 10 µl. The reaction was stopped by adding 3% aq. H3PO4. Aliquots were spotted onto P-81 phosphocellulose (Whatman), washed three times with 0.5% aq. H3PO4 and air-dried. Kinase inhibition was quantified using a FLA-7000 digital image analyser (Fujifilm). The drug doses required to decrease kinase activities by 50%, represented by the IC50 values, were determined from dose[…]response curves. The selectivity profiling of LGR6768 was performed on a panel of 50 kinases, including known off-targets of other structurally related pyrazolo[4,3-d]pyrimidines or isosteres, such as roscovitine or CR8 [31]. Given the high structural similarity within the CDK family, we also evaluated LGR6768 against 14 CDKs to assess its selectivity across them. The compound was applied at a 1 µM concentration, and the experiment confirmed selective reduction of the enzymatic activity of CDK7 to 4%.

CDK2/cyclin A = CDK2/cyclin A (Homo sapiens, UniProt P24941); experiment: biochemical; design: radiometric kinase inhibition assay with [gamma-33P]ATP, P-81 phosphocellulose spotting, digital image analysis
Protocol: as §1

CDK9/cyclin T = CDK9/cyclin T (Homo sapiens, UniProt P50750); experiment: biochemical; design: radiometric kinase inhibition assay with [gamma-33P]ATP, P-81 phosphocellulose spotting, digital image analysis
Chain of CDK9/cyclin T (P50750 whole entry): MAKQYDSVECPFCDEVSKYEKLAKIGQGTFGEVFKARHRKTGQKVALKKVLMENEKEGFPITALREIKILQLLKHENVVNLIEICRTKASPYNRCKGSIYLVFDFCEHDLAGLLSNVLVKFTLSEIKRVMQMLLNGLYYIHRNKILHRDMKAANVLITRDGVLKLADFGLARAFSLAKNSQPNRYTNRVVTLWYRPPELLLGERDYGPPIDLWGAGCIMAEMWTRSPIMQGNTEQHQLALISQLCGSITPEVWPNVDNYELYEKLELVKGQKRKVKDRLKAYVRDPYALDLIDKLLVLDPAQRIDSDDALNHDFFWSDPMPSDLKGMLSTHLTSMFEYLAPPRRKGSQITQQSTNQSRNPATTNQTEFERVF
Chain of CDK9/cyclin T (O60563 whole entry partner): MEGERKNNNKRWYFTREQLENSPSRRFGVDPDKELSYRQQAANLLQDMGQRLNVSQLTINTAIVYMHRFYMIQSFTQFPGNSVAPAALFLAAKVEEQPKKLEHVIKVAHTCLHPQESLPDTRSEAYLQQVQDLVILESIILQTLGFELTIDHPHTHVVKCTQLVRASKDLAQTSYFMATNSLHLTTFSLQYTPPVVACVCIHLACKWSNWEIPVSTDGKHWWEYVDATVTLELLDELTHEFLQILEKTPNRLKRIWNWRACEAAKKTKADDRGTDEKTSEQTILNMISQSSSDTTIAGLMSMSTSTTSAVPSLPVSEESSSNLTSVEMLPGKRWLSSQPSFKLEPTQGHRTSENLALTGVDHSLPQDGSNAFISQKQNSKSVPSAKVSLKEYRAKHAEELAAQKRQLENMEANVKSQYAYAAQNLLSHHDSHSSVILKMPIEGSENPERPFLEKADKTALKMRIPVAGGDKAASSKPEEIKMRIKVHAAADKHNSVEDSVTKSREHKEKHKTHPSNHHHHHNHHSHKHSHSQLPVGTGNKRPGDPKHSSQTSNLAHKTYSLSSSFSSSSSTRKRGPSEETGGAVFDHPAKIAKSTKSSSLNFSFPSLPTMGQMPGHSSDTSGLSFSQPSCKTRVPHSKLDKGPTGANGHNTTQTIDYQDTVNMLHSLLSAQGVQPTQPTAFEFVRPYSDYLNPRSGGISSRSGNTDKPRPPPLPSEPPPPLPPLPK
Protocol: as §1

CDK2/cyclin E = CDK2/cyclin E (Homo sapiens, UniProt P24941); experiment: biochemical; design: radiometric kinase inhibition assay with [gamma-33P]ATP, P-81 phosphocellulose spotting, digital image analysis
Protocol: as §1

CDK1/cyclin B = CDK1/cyclin B (Homo sapiens, UniProt P06493); experiment: biochemical; design: radiometric kinase inhibition assay with [gamma-33P]ATP, P-81 phosphocellulose spotting, digital image analysis
Chain of CDK1/cyclin B (P06493 whole entry): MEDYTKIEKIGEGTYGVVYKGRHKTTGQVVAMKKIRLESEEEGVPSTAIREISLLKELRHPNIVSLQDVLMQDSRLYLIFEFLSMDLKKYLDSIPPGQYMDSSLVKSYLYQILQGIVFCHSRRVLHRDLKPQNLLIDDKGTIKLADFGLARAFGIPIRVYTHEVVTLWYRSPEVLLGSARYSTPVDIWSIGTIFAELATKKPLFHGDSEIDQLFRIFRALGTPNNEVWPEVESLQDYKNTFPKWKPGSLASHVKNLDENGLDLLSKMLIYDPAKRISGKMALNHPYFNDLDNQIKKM
Chain of CDK1/cyclin B (P14635 whole entry partner): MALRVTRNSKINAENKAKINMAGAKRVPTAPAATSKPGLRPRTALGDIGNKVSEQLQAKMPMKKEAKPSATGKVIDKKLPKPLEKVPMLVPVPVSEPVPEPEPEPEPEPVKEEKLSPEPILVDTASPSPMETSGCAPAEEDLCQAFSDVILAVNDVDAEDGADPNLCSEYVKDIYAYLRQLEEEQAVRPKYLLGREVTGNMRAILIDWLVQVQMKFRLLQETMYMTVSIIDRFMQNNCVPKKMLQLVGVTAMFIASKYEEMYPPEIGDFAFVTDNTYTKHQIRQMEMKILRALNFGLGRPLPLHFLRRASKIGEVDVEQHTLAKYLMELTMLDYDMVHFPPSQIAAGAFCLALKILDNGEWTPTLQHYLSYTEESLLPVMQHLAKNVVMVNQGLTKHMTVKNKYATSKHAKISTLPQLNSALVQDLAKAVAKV
Protocol: as §1

CDK4/cyclin D1 = CDK4/cyclin D1 (Homo sapiens, UniProt P11802); experiment: biochemical; design: radiometric kinase inhibition assay with [gamma-33P]ATP, P-81 phosphocellulose spotting, digital image analysis
Chain of CDK4/cyclin D1 (P11802 whole entry): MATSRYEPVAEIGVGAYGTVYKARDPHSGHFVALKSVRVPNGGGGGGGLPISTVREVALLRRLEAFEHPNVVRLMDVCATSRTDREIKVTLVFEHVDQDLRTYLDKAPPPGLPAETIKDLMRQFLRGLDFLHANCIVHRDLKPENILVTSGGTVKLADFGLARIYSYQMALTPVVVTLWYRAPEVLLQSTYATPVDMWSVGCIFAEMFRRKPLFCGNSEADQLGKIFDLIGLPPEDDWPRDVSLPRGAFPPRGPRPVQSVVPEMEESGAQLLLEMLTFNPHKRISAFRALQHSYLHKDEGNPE
Chain of CDK4/cyclin D1 (P24385 whole entry partner): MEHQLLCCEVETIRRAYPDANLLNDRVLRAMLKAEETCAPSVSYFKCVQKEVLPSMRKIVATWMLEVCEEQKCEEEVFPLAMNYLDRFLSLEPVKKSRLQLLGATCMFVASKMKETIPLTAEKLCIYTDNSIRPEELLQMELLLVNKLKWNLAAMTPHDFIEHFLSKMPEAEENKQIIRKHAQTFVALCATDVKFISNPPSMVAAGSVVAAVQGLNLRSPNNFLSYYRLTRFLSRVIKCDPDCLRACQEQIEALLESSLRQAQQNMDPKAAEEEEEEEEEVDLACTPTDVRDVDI
Protocol: as §1

CK1δ = target: T3, CK1δ (Homo sapiens, UniProt P48730); experiment: Eurofins kinase selectivity panel; type: biochemical; conditions: read-out: residual activity at 1 μM
T3 construct: gene CSNK1D; Eurofins Discovery kinase panel
T3 sequence (P48730 whole entry): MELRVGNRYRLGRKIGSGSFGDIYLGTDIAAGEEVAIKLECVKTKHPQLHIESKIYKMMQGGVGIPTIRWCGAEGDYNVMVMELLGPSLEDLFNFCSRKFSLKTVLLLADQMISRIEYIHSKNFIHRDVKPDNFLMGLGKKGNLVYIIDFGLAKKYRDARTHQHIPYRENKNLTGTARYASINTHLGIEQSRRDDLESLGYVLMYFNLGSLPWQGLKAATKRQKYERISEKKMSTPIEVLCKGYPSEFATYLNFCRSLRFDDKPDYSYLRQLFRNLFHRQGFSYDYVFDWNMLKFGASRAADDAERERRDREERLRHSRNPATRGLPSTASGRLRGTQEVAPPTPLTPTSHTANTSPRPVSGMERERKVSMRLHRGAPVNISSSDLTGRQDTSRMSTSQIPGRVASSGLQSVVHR

T1 sequence (Q00536 whole entry): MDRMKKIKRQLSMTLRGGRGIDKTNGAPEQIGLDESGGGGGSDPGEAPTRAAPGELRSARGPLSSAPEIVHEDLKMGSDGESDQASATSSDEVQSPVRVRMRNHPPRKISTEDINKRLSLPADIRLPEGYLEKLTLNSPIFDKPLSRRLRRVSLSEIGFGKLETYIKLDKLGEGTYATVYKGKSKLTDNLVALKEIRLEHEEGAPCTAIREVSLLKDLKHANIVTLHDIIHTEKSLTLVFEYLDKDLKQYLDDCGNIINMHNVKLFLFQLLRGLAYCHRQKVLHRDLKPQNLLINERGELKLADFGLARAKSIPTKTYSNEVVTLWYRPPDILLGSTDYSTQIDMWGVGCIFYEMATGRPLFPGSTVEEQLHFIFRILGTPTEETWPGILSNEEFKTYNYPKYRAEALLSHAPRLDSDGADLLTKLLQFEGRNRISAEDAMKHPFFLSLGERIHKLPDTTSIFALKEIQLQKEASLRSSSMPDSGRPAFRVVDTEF

remaining activity at 1 µM (CDK16): 19% | IC50 (CDK7): 20 nM | IC50 (CDK5/p25): 1120 nM | IC50 (CDK2/cyclin A): 500 nM | IC50 (CDK9/cyclin T): 6550 nM | IC50 (CDK2/cyclin E): 250 nM | IC50 (CDK1/cyclin B): 5140 nM | IC50 (CDK4/cyclin D1): > 20000 nM | remaining activity at 1 µM (CK1δ): 19%
Structure (SMILES): CC(C)c1n[nH]c2c(NCc3ccccc3-c3ccccc3)nc(SC3CCNCC3)nc12 [compound 4, 5-(piperidin-4-yl)thio-3-isopropyl-7-(2-phenylbenzyl)amino-1(2)H-pyrazolo[4,3-d]pyrimidine]
